Assay results: patent US7176293B1, “Compositions and methods to enhance sensitivity of cancer cells to mitotic stress” (The Wistar Institute of Anatomy and Biology, priority 1999, dated 2007)

Legend:
DLD1 cells [1] = assay: Long term response to mitotic stress (colony formation); type: cell-based, human; settings: 4 hour exposure 12 hours after release, colonies over three weeks
Protocol: Cells synchronized by a sequential thymidine-aphidicolin block were either not exposed to mitotic stress or exposed to 0.5 μg/ml nocodazole or the TAXOL™ drug for a 4 hour period starting 12 hours after aphidicolin release or release from the G1-S block. The short term response to mitotic stress was evaluated by examining the cell cycle profile at the time of nocodazole removal, 24 or 48 hours later. At the indicated time points, the cells were recovered from the tissue culture plates with trypsin, fixed in 70% ethanol for 10 minutes and incubated with propidium iodide and DNase-free RNase (Roche) in PBS containing 1% fetal bovine serum and 2% Tween-20. The nuclear morphology of the cells was visualized by fluorescence microscopy. The DNA content of the cell population was determined by flow cytometry.
To evaluate the long term response of the cells to survive exposure to mitotic stress, at the time of nocodazole removal, the cells were replated at a density of 200 cells per 100 mm diameter tissue culture dish. The cells were allowed to replicate and colonies were counted 3 weeks later.
To the long term response of the cells to survive exposure to mitotic stress, synchronized DLD1-neo and DLD1-chfr cells were transiently exposed to nocodazole or the TAXOL™ drug, as described above (e.g., exposed to nocodazole or the TAXOL™ drug 12 hours after release from the G1-S block for a 4 hour period). At the time of nocodazole removal, the cells were replated at a density of 200 cells per 100 mm diameter tissue culture dish and then allowed to form colonies over a three-week period.

cyclin B/cdc2 = assay: Cdc2 kinase activity in synchronized DLD1 cells; type: cell-based, human; settings: synchronized DLD1-neo and DLD1-chfr cells treated 12 hours after release from the G1-S block
Protocol: Whole cell extracts, prepared as described above, were incubated with anti-cyclin B antibody (Santa Cruz) coupled to protein G beads (Pharmacia) in CL buffer for 1 hour. The beads were washed three times with CL buffer and then twice with cdc2 kinase (CK) buffer (50 mM HEPES, pH 7.0, 10 mM MgCl2, 10 mM MnCl2, 200 mM NaCl). The beads were then incubated with 1 μg histone H1 (Upstate Biotechnology) in CK buffer supplemented with 30 mM DTT, 0.06 μM ATP and 1 μCi ^32P-γ-ATP for 20 minutes at 30° C., at which time the reactions were subjected to denaturing gel electrophoresis. Phosphorylation of histone H1 was detected by autoradiography.

[2] = test system: eight human cancer cell lines (SW480, DLD1, HT29, HCT116, SAOS2, U20S, IMR5 and NGP); assay: Mitotic index of unsynchronized human cancer cell lines treated with nocodazole; type: cell-based; settings: 16 hours after nocodazole
Protocol: All cancer cells were grown in DMEM supplemented with glutamine, penicillin, streptomycin and 10% fetal bovine serum (Life Sciences). Normal human epidermal keratinocytes and osteoblasts were grown in KGM2 and OGM media, respectively (Clonetics). The cells were examined either non-synchronized or synchronized. For synchronization, the cells were treated with 2 mM thymidine for 16 hours, then with 0.25 mM thymidine/deoxycytidine for 9 hours, and then with 0.5 μg/ml aphidicolin for 20–24 hours. The cells were washed three times with PBS between each step [Janss et al., 1998, Exp. Cell Res., 243:29–38]. To induce mitotic stress, synchronized or non-synchronized cells were exposed to 0.5 μg/ml nocodazole, 5 μM of the TAXOL™ drug or 0.5 μg/ml colcemid. Cells were grown on 8-well culture slides coated with human fibronectin (Becton Dickinson) and were examined as either non-synchronized or synchronized cells. […] The slides were sealed with coverslips using Fluoromount-G (Upstate Biotechnology) and visualized with a fluorescence microscope (Leica). […] The cells were scored for Mitotic Index. […]

DLD1 cells [3] = assay: Centrosome staining of synchronized DLD1-neo and DLD1-chfr cells; type: cell-based, human; settings: nocodazole added 12 hours after aphidicolin release, 14 hour time point
Protocol: Cells were grown on 8-well culture slides coated with human fibronectin (Becton Dickinson) and were examined as either non-synchronized or synchronized cells. The cells were prepared for microscopy by washing them three times with KM buffer (10 mM MES, pH 6.2, 10 mM NaCl, 1.5 mM MgCl2, 2.5% glycerol), fixing with 1% paraformaldehyde in 0.5×KM buffer for 15 minutes, washing once with 0.2% Triton X-100 in phosphate buffer saline (PBS) for 20 minutes and three times with PBS. For centrosome staining, the cells were incubated for 1 hour with a 1:500 dilution of autoimmune serum Ab598 in PBS, washed three times with PBS, incubated with a Texas Red-conjugated anti-human secondary antibody (Vector Labs) diluted 1:200 in PBS and washed again three times with PBS. For DNA staining, the cells were incubated with DAP1 ([…] in PBS). The slides were sealed with coverslips using Fluoromount-G (Upstate Biotechnology) and visualized with a fluorescence microscope (Leica). Separate images, acquired using filters corresponding to the excitation maxima of DAP1 and Texas Red, were merged with IRIX image tools (Silicon Graphics).
To correlate the timing of the Chfr effect with progress through the cell cycle, synchronized cells were stained with DAP1 to monitor chromosome condensation and with an antibody that recognizes the centrosomes. […]

Chfr = biological target: T1, Chfr (Homo sapiens, UniProt Q96EP1); assay: Ubiquitin-protein ligase assay in vitro; type: biochemical; settings: crude bacterial lysates with E1, GST-Chfr, ubiquitin and ATP
T1 construct: Reactions were performed with full-length Chfr fused to GST; made in house; host or cells: E. coli (crude bacterial lysates)
T1 sequence (Q96EP1 1-664): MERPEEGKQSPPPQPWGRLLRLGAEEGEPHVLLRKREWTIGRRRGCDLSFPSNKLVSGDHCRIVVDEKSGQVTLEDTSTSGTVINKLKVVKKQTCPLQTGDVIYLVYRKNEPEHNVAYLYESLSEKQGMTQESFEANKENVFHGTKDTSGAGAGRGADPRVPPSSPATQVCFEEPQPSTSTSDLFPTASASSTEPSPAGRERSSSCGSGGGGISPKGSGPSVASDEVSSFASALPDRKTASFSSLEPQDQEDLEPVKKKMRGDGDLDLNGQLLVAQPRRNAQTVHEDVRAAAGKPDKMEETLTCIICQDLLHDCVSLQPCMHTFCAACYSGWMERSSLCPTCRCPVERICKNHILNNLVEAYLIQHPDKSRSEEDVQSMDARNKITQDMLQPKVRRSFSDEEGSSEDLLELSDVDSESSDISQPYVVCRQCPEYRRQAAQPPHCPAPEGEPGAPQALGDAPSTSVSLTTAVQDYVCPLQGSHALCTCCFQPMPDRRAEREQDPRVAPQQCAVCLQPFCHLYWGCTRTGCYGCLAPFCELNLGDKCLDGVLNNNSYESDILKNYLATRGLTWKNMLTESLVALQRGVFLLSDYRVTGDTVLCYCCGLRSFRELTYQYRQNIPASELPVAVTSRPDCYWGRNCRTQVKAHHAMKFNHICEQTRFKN
Protocol: Recombinant E. coli bacterial cells that have been genetically engineered to express the E1 ubiquitin-activating enzyme and the E2 ubiquitin-conjugating enzyme (either UbchD2 or Ubch8) and a […] comprised of glutathione S-transferase fused to the N-terminus of Chfr were lysed. The lysates were incubated in the presence of ubiquitin and ATP and the reaction allowed to proceed for 20 minutes at 30° C. GST-Chfr was captured on glutathione beads, eluted with SDS sample buffer, and resolved by SDS-PAGE. The SDS gel was immunoblotted with antibodies that recognize ubiquitin. Reactions were performed with full-length Chfr fused to GST and reactions were performed with Chfr lacking amino acid residues 1–280 of SEQ ID NO: 2, which contain the FHA domain.

Compound	number of colony-forming units (CFUs) (DLD1 cells [1]; DLD1-chfr cells)	number of colony-forming units (CFUs) (DLD1 cells [1]; DLD1-neo cells)	Cyclin B/cdc2 activity (cyclin B/cdc2)	mitotic index (fraction of cells that had condensed chromosomes) ([2]; cell lines that expressed wild-type Chfr)	mitotic index (fraction of cells that had condensed chromosomes) ([2]; cell lines with no detectable Chfr expression and U20S cells (variant chfr))	centrosome separation (DLD1 cells [3])	ability of the E2 ubiquitin-conjugating enzyme to support ligase activity of Chfr (Chfr)
CC(=O)O[C@H]1C(=O)[C@@]2(C)[C@H]([C@H](OC(=O)c3ccccc3)[C@]3(O)C[C@H](OC(=O)[C@H](O)[C@@H](NC(=O)c4ccccc4)c4ccccc4)C(C)=C1C3(C)C)[C@]1(OC(C)=O)CO[C@@H]1C[C@@H]2O [TAXOL™ drug]	unaffected	decrease					
COC(=O)Nc1nc2ccc(C(=O)c3cccs3)cc2[nH]1 [nocodazole]	unaffected	decrease	high	low	high	inhibited	
Ubch8: E2 ubiquitin-conjugating enzyme							did not function in this assay
